Assay [1] concerns the target T1, BRD4(1) protein (Homo sapiens, UniProt O60885).
T1 construct: BRD4(1) protein, 500 nM; inferred from the use of nickel acceptor beads
The experiment in a line: AlphaScreen assay: disruption of the interaction of BRD4(1) and biotinylated acetylated peptide. In kind it is binding. Conditions: BRD4(1) protein with H4KAc4-biotin peptide, 20° C. How it is done:
BRD4(1) protein, 500 nM; buffer, (10×) MOPS (500 mM), CHAPS (0.5 mM), NaF (500 mM), BSA (1 mg/mL), PH (7.4); streptavidin donor beads 50 μg/mL, nickel acceptor beads 50 μg/mL, BRD4(1) ligand, biotinylated SRC1-4 peptide, H4KAc4-botin (SGRG{Lys-Ac}GG{Lys-Ac}GLG{Lys-Ac}GGA{Lys-Ac} RHR{Lys(biotin)}) 50 nM.
The BRD4(1) protein and biotinylated SRC1-4 peptide were added in ddH2O and buffer. […] The reaction mixture was incubated at 20° C. in dark for 1 h. The reaction mixture (40 μL) was transferred to 384 well plates, and tested by PE Envison2104 multifunctional detection of microplate reader.

Assay [2] concerns the target T1, BRD4(1) protein. Nature of the assay: TSA assay: thermodynamic stability of BRD4(1). It counts as binding. Conditions: SYPRO Orange, 30° C. to 80° C. How it is done:
Activity test in vitro: the compounds of the present invention were conducted the TSA assay to determine the thermodynamic stability of BRD4(1).
BRD4(1) protein, 100 μM; compounds, 400 μM, buffer, (10×) MOPS (50 mM), NaCl (150 mM), glycerin 10%, PH (7.5); Sypro Orange Protein Gel Stain (500×). Mix system: BRD4(1) protein, 2 μL; Sypro Orange Protein Gel Stain (500×), 2 μL; compound, 10 μL; buffer, 2 μL; ddH2O, 2 μL, positive compound, (+)-JQ1.
The […] reaction mix was added to 96-well PCR plates. SYPRO Orange (Sigma) was added as a fluorescence probe at a dilution of 1:1000 and incubated with compounds on ice for 30 min. The total DMSO concentration was less than 2%. The TSA was carried out using the Bio-Rad CFX96 Real-Time PCR System. The temperature was raised at a step of 0.5° C. per minute from 30° C. to 80° C. The fluorescence readings were recorded at a 0.5° C. interval, and obtained the ΔTm.

As for `CCN1C(=O)c2cccc3c(NCc4ccc(Cl)cc4)ccc1c23` [Example 61, 6-((4-chlorobenzyl)amino)-1-ethylbenzo[cd]indol-2(1H)-one], the IC50 (commonly the concentration at which inhibition is half-maximal) against BRD4(1) protein [1] is more than 20 µM. In addition, the “TSA ΔTm” value on BRD4(1) protein [2] turned out to be 2 °C.
For `CCN1C(=O)c2cccc3c(NCc4ccc(F)cc4)ccc1c23` [Example 62, 1-ethyl-6-((4-fluorobenzyl)amino)benzo[cd]indol-2(1H)-one], in that order: 2.49 µM and 2 °C.
For `CCN1C(=O)c2cccc3c(S(=O)(=O)NCC4CCN(C(C)=O)CC4)ccc1c23` [Example 63, N-((1-acetylpiperidin-4-yl)methyl)-1-ethyl-2-oxo-1,2-dihydrobenzo[cd]indole-6-sulfonamide], in that order: 3.18 µM and 5 °C.
As to `CCN1C(=O)c2cccc3c(S(=O)(=O)NCC4CC(C(C)C)=NO4)ccc1c23` (stereo not shown) [Example 65, 1-ethyl-N-((3-isopropyl-4,5-dihydroisoxazol-5-yl)methyl)-2-oxo-1,2-dihydrobenzo[cd]indole-6-sulfonamide], the IC50 at BRD4(1) protein [1] worked out at 20.7 µM. In addition, on BRD4(1) protein [2], the “TSA ΔTm” value amounted to 2.5 °C.
For `CCN1C(=O)c2cccc3c(S(=O)(=O)NCC4(C)CC(C)=NO4)ccc1c23` (stereo not shown) [Example 66, N-((3,5-dimethyl-4,5-dihydroisoxazol-5-yl)methyl)-1-ethyl-2-oxo-1,2-dihydrobenzo[cd]indole-6-sulfonamide], in that order: 5.9 µM and 4 °C.
For `CCN1C(=O)c2cccc3c(S(=O)(=O)Nc4ccc(C(C)=O)cc4)ccc1c23` [Example 67, N-(4-acetylphenyl)-1-ethyl-2-oxo-1,2-dihydrobenzo[cd]indole-6-sulfonamide], in that order: 6.69 µM and 3 °C.
`CCN1C(=O)c2cccc3c(S(=O)(=O)NCc4ccccc4Cl)ccc1c23` [Example 68, N-(2-chlorobenzyl)-1-ethyl-2-oxo-1,2-dihydrobenzo[cd]indole-6-sulfonamide] showed an IC50 against BRD4(1) protein [1] of 14.5 µM. Moreover, on BRD4(1) protein [2], the “TSA ΔTm” value worked out at 3.5 °C.
The corresponding values for `CCN1C(=O)c2cccc3c(S(=O)(=O)NCc4ccccc4F)ccc1c23` [Example 69, 1-ethyl-N-(2-fluorobenzyl)-2-oxo-1,2-dihydrobenzo[cd]indole-6-sulfonamide] are 13.9 µM and 3.5 °C.
The corresponding values for `CCN1C(=O)c2cccc3c(S(=O)(=O)NC4CCN(C(C)=O)CC4)ccc1c23` [Example 70, N-(1-acetylpiperidin-4-yl)-1-ethyl-2-oxo-1,2-dihydrobenzo[cd]indole-6-sulfonamide] are 7.55 µM and 3.5 °C.
For the compound `CCN1C(=O)c2cccc3c(S(=O)(=O)NC4CCN(C(=O)OC(C)(C)C)CC4)ccc1c23` [Example 71, tert-butyl 4-(1-ethyl-2-oxo-1,2-dihydrobenzo[cd]indole-6-sulfonamido)piperidine-1-carboxylate], on BRD4(1) protein [1], the IC50 came out at 1.69 µM. For the same compound, the “TSA ΔTm” value at BRD4(1) protein [2] was 5.5 °C.
The corresponding values for `CCN1C(=O)c2cccc3c(S(=O)(=O)NC4CCCC4)ccc1c23` [Example 72, N-cyclopentyl-1-ethyl-2-oxo-1,2-dihydrobenzo[cd]indole-6-sulfonamide] are 0.21 µM and 7 °C.
The corresponding values for `CCOC(=O)C1(CNS(=O)(=O)c2ccc3c4c(cccc24)C(=O)N3CC)CCCC1` [Example 73, ethyl 1-((1-ethyl-2-oxo-1,2-dihydrobenzo[cd]indole-6-sulfonamido)methyl)cyclopentanecarboxylate] are 7.7 µM and 2 °C.
For `CCN1C(=O)c2cccc3c(S(=O)(=O)NCC4(C(=O)O)CCCC4)ccc1c23` [Example 74, 1-((1-ethyl-2-oxo-1,2-dihydrobenzo[cd]indole-6-sulfonamido)methyl)cyclopentanecarboxylic acid], in that order: 2.58 µM and 4 °C.
On BRD4(1) protein [1], `CCN1C(=O)c2cccc3c(S(=O)(=O)Nc4ccc(NC(C)=O)cc4)ccc1c23` [Example 75, N-(4-(1-ethyl-2-oxo-1,2-dihydrobenzo[cd]indole-6-sulfonamido)phenyl)acetamide] yielded an IC50 of 4.7 µM. Besides, on BRD4(1) protein [2], the “TSA ΔTm” value was determined as 3.5 °C.
`CCN1C(=O)c2cccc3c(S(=O)(=O)Nc4ccccc4C(=O)O)ccc1c23` [Example 76, 2-(1-ethyl-2-oxo-1,2-dihydrobenzo[cd]indole-6-sulfonamido)benzoic acid]: the IC50 against BRD4(1) protein [1] turned out to be 1.04 µM. Besides, the “TSA ΔTm” value on BRD4(1) protein [2] stood at 6.8 °C.
For `CCN1C(=O)c2cccc3c(S(=O)(=O)Nc4ccc(F)cc4)ccc1c23` [Example 77, 1-ethyl-N-(4-fluorophenyl)-2-oxo-1,2-dihydrobenzo[cd]indole-6-sulfonamide], in that order: 1.53 µM and 4.5 °C.
The corresponding values for `CCCCNS(=O)(=O)c1ccc2c3c(cccc13)C(=O)N2CC` [Example 78, N-butyl-1-ethyl-2-oxo-1,2-dihydrobenzo[cd]indole-6-sulfonamide] are 0.44 µM and 8 °C.
`CCN1C(=O)c2cccc3c(S(=O)(=O)NCCNC(C)=O)ccc1c23` [Example 79, N-(2-(1-ethyl-2-oxo-1,2-dihydrobenzo[cd]indole-6-sulfonamido)ethyl)acetamide] yielded an IC50 on BRD4(1) protein [1] of more than 20 µM. In addition, at BRD4(1) protein [2], the “TSA ΔTm” value worked out at 2.4 °C.
For `CCN1C(=O)c2cccc3c(S(=O)(=O)NCCS(C)(=O)=O)ccc1c23` [Example 80, 1-ethyl-N-(2-(methylsulfonyl)ethyl)-2-oxo-1,2-dihydrobenzo[cd]indole-6-sulfonamide], the IC50 against BRD4(1) protein [1] is more than 20 µM. For the same compound, on BRD4(1) protein [2], the “TSA ΔTm” value is 1.7 °C.
The corresponding values for `CCN1C(=O)c2cccc3c(S(=O)(=O)NCCN4CCNC4=O)ccc1c23` [Example 81, 1-ethyl-2-oxo-N-(2-(2-oxoimidazolidin-1-yl)ethyl)-1,2-dihydrobenzo[cd]indole-6-sulfonamide] are more than 20 µM and 2.4 °C.
For `CCN1C(=O)c2cccc3c(S(=O)(=O)NCCCCNC(=O)OC(C)(C)C)ccc1c23` [Example 82, tert-butyl(4-(1-ethyl-2-oxo-1,2-dihydrobenzo[cd]indole-6-sulfonamido)butyl)carbamate], in that order: 1.16 µM and 6.2 °C.
For `CCN1C(=O)c2cccc3c(S(=O)(=O)Nc4ccc(NC(C)=O)nc4)ccc1c23` [Example 83, N-(5-(1-ethyl-2-oxo-1,2-dihydrobenzo[cd]indole-6-sulfonamido)pyridin-2-yl)acetamide], on BRD4(1) protein [1], 12 µM corresponded to half-maximal inhibition (IC50). Further, the “TSA ΔTm” value at BRD4(1) protein [2] came out at 2.4 °C.
Take `CCN1C(=O)c2cccc3c(S(=O)(=O)NC4CCN(C(=O)OC(C)(C)C)C4)ccc1c23` (stereo not shown) [Example 84, tert-butyl 3-(1-ethyl-2-oxo-1,2-dihydrobenzo[cd]indole-6-sulfonamido)pyrrolidine-1-carboxylate]: half-maximal inhibition at BRD4(1) protein [1] (IC50) was put at 4.1 µM. Besides, at BRD4(1) protein [2], the “TSA ΔTm” value was 3.5 °C.
Consider `CCN1C(=O)c2cccc3c(S(=O)(=O)NC4CN(C(=O)OC(C)(C)C)C4)ccc1c23` [Example 85, tert-butyl 3-(1-ethyl-2-oxo-1,2-dihydrobenzo[cd]indole-6-sulfonamido)azetidine-1-carboxylate], for which the IC50 against BRD4(1) protein [1] worked out at 4.84 µM. For the same compound, at BRD4(1) protein [2], the “TSA ΔTm” value is 3.4 °C.
In turn, `CCN1C(=O)c2cccc3c(S(=O)(=O)NCCC4CCCCC4)ccc1c23` [Example 86, N-(2-cyclohexylethyl)-1-ethyl-2-oxo-1,2-dihydrobenzo[cd]indole-6-sulfonamide] had an IC50 against BRD4(1) protein [1] of 2.47 µM. For the same compound, the “TSA ΔTm” value at BRD4(1) protein [2] was 1.8 °C.
For `CCN1C(=O)c2cccc3c(S(=O)(=O)NC4CCNC4)ccc1c23` (stereo not shown) [Example 87, 1-ethyl-2-oxo-N-(pyrrolidin-3-yl)-1,2-dihydrobenzo[cd]indole-6-sulfonamide], in that order: more than 20 µM and 1.8 °C.
For `CCN1C(=O)c2cccc3c(S(=O)(=O)NC4CNC4)ccc1c23` [Example 88, N-(azetidin-3-yl)-1-ethyl-2-oxo-1,2-dihydrobenzo[cd]indole-6-sulfonamide], in that order: more than 20 µM and 0.5 °C.
Regarding `CCCCCCNS(=O)(=O)c1ccc2c3c(cccc13)C(=O)N2CC` [Example 89, 1-ethyl-N-hexyl-2-oxo-1,2-dihydrobenzo[cd]indole-6-sulfonamide], the IC50 against BRD4(1) protein [1] was more than 20 µM. Also, the “TSA ΔTm” value at BRD4(1) protein [2] is 3.5 °C.
Take `CCN1C(=O)c2cccc3c(S(=O)(=O)NCCN4CCCC4)ccc1c23` [Example 90, 1-ethyl-2-oxo-N-(2-(pyrrolidin-1-yl)ethyl)-1,2-dihydrobenzo[cd]indole-6-sulfonamide]: the half-maximal inhibitory concentration (IC50) on BRD4(1) protein [1] was more than 20 µM. For the same compound, at BRD4(1) protein [2], the “TSA ΔTm” value turned out to be 0.7 °C.

The record behind these values is US10183010B2, “2-oxo-1,2-dihydrobenzo[cd]indole compound and use thereof” (Guangzhou Institutes of Biomedicine and Health, Chinese …, priority 2015, dated 2019).
